# ChEMBL document CHEMBL1135561, “Development of a phosphatase-stable phosphotyrosyl mimetic suitably protected for the synthesis of high-affinity Grb2 SH2 domain-binding ligands” (Bioorg Med Chem Lett, 2002)
# Experiments:
# [1] = molecular target: T1, Growth factor receptor-bound protein 2 (Homo sapiens, UniProt P62993); assay: Inhibition of Growth factor receptor bound protein 2 SH2 domain binding to p185erbB-2 receptor
# [2] = molecular target: T1, Growth factor receptor-bound protein 2; assay: Binding affinity for Growth factor receptor bound protein 2 SH2 domain
# MDA-MB-453 = assay: Inhibition of MDA-MB-453 cell proliferation; assay type: functional, cell-based; settings: Homo sapiens
IC50 [1] [µM],IC50 [2] [µM],IC50 (MDA-MB-453) [µM],Compound
> 30,5,> 50,[N-]=[N+]=N[C@@H](Cc1ccc(CP(=O)(O)O)cc1)C(=O)NC1(C(=O)N[C@@H](CC(N)=O)C(=O)NCCCc2cccc3ccccc23)CCCCC1
3,0.009,5,NC(=O)C[C@H](NC(=O)C1(NC(=O)[C@H](Cc2ccc(CP(=O)(O)O)cc2)NC(=O)C(=O)O)CCCCC1)C(=O)NCCCc1cccc2ccccc12
10,0.008,8,NC(=O)C[C@H](NC(=O)C1(NC(=O)[C@@H](CC(=O)O)Cc2ccc(CP(=O)(O)O)cc2)CCCCC1)C(=O)NCCCc1cccc2ccccc12
